This note sets out measurements from ChEMBL document CHEMBL1151679, “A new cytotoxic sterol methoxymethyl ether from a deep water marine sponge Scleritoderma sp. cf. paccardi” (J Nat Prod, 1996).

Broadly, the IC50 is the concentration at which inhibition is half-maximal. Lower therefore signals greater potency.

The assay concerns P388. The experiment in a line: Cytotoxicity against mouse P388 cells. In kind it is functional, cell-based.

Each structure is given as a SMILES string. ≈ marks a conversion by molar mass, not a printed value.

The compound `COCO[C@H]1CC[C@@]2(C)[C@@H](CC=C3[C@@H]2CC[C@]2(C)[C@@H]([C@H](C)CC[C@@H](C)C(C)C)CC[C@@H]32)C1` yielded an IC50 of 2.3 µg/mL (≈ 5.17 µM).
